Columns and labels:
786-0 [1] = test: inhibition of the growth of renal cancer(786-0) cell line; assay type: functional; details: Homo sapiens
786-0 [2] = test: Inhibition of the growth of renal cancer(786-0) cell line at 0.01 uM; assay type: functional; details: Homo sapiens
A549 [3] = test: Inhibition of the growth of non-small-cell lung cancer (A549/ATCC) cell line; assay type: functional; details: Homo sapiens
A549 [4] = test: Inhibition of the growth of non-small-cell lung cancer (A549/ATCC) cell line at 0.01 uM; assay type: functional; details: Homo sapiens
CAKI-1 [5] = test: inhibition of the growth of renal cancer(CAKI-1) cell line; assay type: functional; details: Homo sapiens
CAKI-1 [6] = test: Inhibition of the growth of renal cancer(CAKI-1) cell line at 0.01 uM; assay type: functional; details: Homo sapiens
DU-145 [7] = test: Inhibition of the growth of prostate cancer(DU-145) cell line at 0.01 uM; assay type: functional; details: Homo sapiens
DU-145 [8] = test: inhibition of the growth of prostate cancer(DU-145) cell line; assay type: functional; details: Homo sapiens
HCT-15 [9] = test: Inhibition of the growth of colon cancer(HCT-15) cell line at 0.01 uM; assay type: functional; details: Homo sapiens
HCT-15 [10] = test: inhibition of the growth of colon cancer(HCT-15) cell line; assay type: functional; details: Homo sapiens
HCT-116 [11] = test: Inhibition of the growth of colon cancer(HCT116) cell line at 0.01 uM; assay type: functional; details: Homo sapiens
HCT-116 [12] = test: Inhibition of the growth of colon cancer(HCT116) cell line; assay type: functional; details: Homo sapiens
IGROV-1 [13] = test: inhibition of the growth of ovarian cancer(IGROVI) cell line; assay type: functional; details: Homo sapiens
KM12 [14] = test: inhibition of the growth of colon cancer(KM-12) cell line; assay type: functional; details: Homo sapiens
KM12 [15] = test: Inhibition of the growth of colon cancer(KM-12) cell line at 0.01 uM; assay type: functional; details: Homo sapiens
M14 [16] = test: Inhibition of the growth of melanoma cancer (M14) cell line at 0.01 uM; assay type: functional; details: Homo sapiens
MOLT-4 [17] = test: Inhibition of the growth of leukemia (MOLT-4) cell line; assay type: functional; details: Homo sapiens
NCI/ADR-RES [18] = test: inhibition of the growth of breast cancer (MCF7/ADR-RES) cell line; assay type: functional; details: Homo sapiens
NCI/ADR-RES [19] = test: Inhibition of the growth of breast cancer (MCF7/ADR-RES) cell line at 0.01 uM; assay type: functional; details: Homo sapiens
MDA-MB-435 [20] = test: Inhibition of the growth of breast cancer (MDA-MB-435) cell line; assay type: functional; details: Homo sapiens
MCF7 [21] = test: Inhibition of the growth of breast cancer (MCF-7) cell line at 0.01 uM; assay type: functional; details: Homo sapiens
M14 [22] = test: inhibition of the growth of melanoma cancer (M14) cell line; assay type: functional; details: Homo sapiens
MDA-N [23] = test: inhibition of the growth of breast cancer(MDA-N) cell line; assay type: functional; details: Homo sapiens
MDA-N [24] = test: Inhibition of the growth of breast cancer(MDA-N) cell line at 0.01 uM; assay type: functional; details: Homo sapiens
MDA-MB-435 [25] = test: Inhibition of the growth of breast cancer (MDA-MB-435) cell line at 0.01 uM; assay type: functional; details: Homo sapiens
MCF7 [26] = test: inhibition of the growth of breast cancer (MCF-7) cell line; assay type: functional; details: Homo sapiens
NCI-H460 [27] = test: inhibition of the growth of non-small-cell lung cancer (NCI-H460) cell line; assay type: functional; details: Homo sapiens
NCI-H522 [28] = test: Inhibition of the growth of non-small-cell lung cancer (NCI-H522) cell line; assay type: functional; details: Homo sapiens
NCI-H522 [29] = test: Inhibition of the growth of non-small-cell lung cancer (NCI-H522) cell line at 0.01 uM; assay type: functional; details: Homo sapiens
NCI-H322M [30] = test: inhibition of the growth of non-small-cell lung cancer (NCI-H322M) cell line; assay type: functional; details: Homo sapiens
NCI-H322M [31] = test: Inhibition of the growth of non-small-cell lung cancer (NCI-H322M) cell line at 0.01 uM; assay type: functional; details: Homo sapiens
OVCAR-8 [32] = test: inhibition of the growth of ovarian cancer(OVCAR-8) cell line; assay type: functional; details: Homo sapiens
NCI-H460 [33] = test: Inhibition of the growth of non-small-cell lung cancer (NCI-H460) cell line at 0.01 uM; assay type: functional; details: Homo sapiens
NCI-H23 [34] = test: inhibition of the growth of non-small-cell lung cancer (NCI-H23) cell line; assay type: functional; details: Homo sapiens
NCI-H23 [35] = test: inhibition of the growth of non-small-cell lung cancer (NCI-H23) cell line at 0.01 uM; assay type: functional; details: Homo sapiens
RPMI-8226 [36] = test: Inhibition of the growth of leukemia (RPMI-8226) cell line AT 0.01 uM; assay type: functional; details: Homo sapiens
RPMI-8226 [37] = test: Inhibition of the growth of leukemia (RPMI-8226) cell line; assay type: functional; details: Homo sapiens
SF-268 [38] = test: Inhibition of the growth of CNS cancer(SF-268) cell line at 0.01 uM; assay type: functional; details: Homo sapiens
SF-268 [39] = test: inhibition of the growth of CNS cancer(SF-268) cell line; assay type: functional; details: Homo sapiens
SF-295 [40] = test: inhibition of the growth of CNS cancer(SF-295) cell line; assay type: functional; details: Homo sapiens
SF-295 [41] = test: Inhibition of the growth of CNS cancer(SF-295) cell line at 0.01 uM; assay type: functional; details: Homo sapiens
SF-539 [42] = test: Inhibition of the growth of CNS cancer(SF-539) cell line at 0.01 uM; assay type: functional; details: Homo sapiens
SNB-19 [43] = test: inhibition of the growth of CNS cancer(SNB-19) cell line; assay type: functional; details: Homo sapiens
SNB-19 [44] = test: Inhibition of the growth of CNS cancer(SNB-19) cell line at 0.01 uM; assay type: functional; details: Homo sapiens
SF-539 [45] = test: inhibition of the growth of CNS cancer(SF-539) cell line; assay type: functional; details: Homo sapiens
SR [46] = test: Inhibition of the growth of leukemia(SR) cell line; assay type: functional; details: Homo sapiens
SR [47] = test: Inhibition of the growth of leukemia(SR) cell line at 0.01 uM; assay type: functional; details: Homo sapiens
SK-MEL-5 [48] = test: inhibition of the growth of melanoma cancer (SK-MEL-5) cell line; assay type: functional; details: Homo sapiens
SK-MEL-5 [49] = test: Inhibition of the growth of melanoma cancer (SK-MEL-5) cell line at 0.01 uM; assay type: functional; details: Homo sapiens
UO-31 [50] = test: inhibition of the growth of renal cancer(UO-31) cell line; assay type: functional; details: Homo sapiens
UO-31 [51] = test: Inhibition of the growth of renal cancer(UO-31) cell line at 0.01 uM; assay type: functional; details: Homo sapiens
IGROV-1 [52] = test: Inhibition of the growth of ovarian cancer(IGROVI) cell line at 0.01 uM; assay type: functional; details: Homo sapiens
MOLT-4 [53] = test: Inhibition of the growth of leukemia (MOLT-4) cell line at 0.01 uM; assay type: functional; details: Homo sapiens
OVCAR-8 [54] = test: Inhibition of the growth of ovarian cancer(OVCAR-8) cell line at 0.01 uM; assay type: functional; details: Homo sapiens
[55] = target: T1, Bifunctional dihydrofolate reductase-thymidylate synthase (Toxoplasma gondii, UniProt Q07422)
T1 sequence (Q07422 whole entry): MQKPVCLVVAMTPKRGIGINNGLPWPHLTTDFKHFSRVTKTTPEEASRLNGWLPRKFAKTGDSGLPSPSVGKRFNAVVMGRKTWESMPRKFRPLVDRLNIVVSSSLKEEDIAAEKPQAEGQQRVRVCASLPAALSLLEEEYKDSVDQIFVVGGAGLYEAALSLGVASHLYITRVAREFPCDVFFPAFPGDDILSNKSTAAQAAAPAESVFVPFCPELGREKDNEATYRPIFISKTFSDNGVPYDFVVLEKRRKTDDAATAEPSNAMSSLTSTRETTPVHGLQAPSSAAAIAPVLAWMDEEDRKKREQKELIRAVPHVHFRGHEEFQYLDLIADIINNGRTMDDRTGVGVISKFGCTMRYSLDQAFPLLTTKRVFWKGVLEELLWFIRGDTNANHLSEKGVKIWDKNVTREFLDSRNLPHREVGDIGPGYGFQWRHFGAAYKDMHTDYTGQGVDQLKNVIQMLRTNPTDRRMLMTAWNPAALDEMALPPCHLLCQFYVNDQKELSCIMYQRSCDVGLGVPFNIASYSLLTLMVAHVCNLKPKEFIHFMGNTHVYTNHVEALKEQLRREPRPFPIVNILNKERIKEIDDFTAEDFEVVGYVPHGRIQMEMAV
Description: Inhibitory activity against dihydrofolate reductase (DHFR) from Toxoplasma gondii

Dihydrofolate reductase [56] = target: T2, Dihydrofolate reductase (Pneumocystis carinii, UniProt P16184)
T2 sequence (P16184 whole entry): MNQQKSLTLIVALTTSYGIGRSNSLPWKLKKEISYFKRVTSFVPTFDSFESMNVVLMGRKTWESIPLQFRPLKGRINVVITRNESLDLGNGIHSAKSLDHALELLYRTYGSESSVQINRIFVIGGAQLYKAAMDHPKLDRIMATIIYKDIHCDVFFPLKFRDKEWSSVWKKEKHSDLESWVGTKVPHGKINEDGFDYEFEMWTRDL
Description: Inhibitory activity against dihydrofolate reductase (DHFR) from Pneumocystis carinii

Dihydrofolate reductase [57] = target: T3, Dihydrofolate reductase (Rattus norvegicus, UniProt Q920D2)
T3 sequence (Q920D2 whole entry): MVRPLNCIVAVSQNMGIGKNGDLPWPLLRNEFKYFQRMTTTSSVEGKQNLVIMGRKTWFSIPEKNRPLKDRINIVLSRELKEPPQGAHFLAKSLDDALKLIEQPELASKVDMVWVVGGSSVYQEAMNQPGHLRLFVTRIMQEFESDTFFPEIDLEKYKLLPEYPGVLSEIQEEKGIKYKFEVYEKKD
Description: Inhibitory activity against dihydrofolate reductase (DHFR) from rat liver

For `COc1ccc(N(C)c2ccc3nc(N)nc(N)c3n2)cc1OC`, the GI50 (786-0 [1]) was less than 10 nM, the inhibition at 0.01 µM (786-0 [2]) was 53% and the GI50 (A549 [3]) was less than 10 nM. It also gave an inhibition at 0.01 µM (A549 [4]) of 70%, a GI50 (CAKI-1 [5]) of less than 10 nM and an inhibition at 0.01 µM (CAKI-1 [6]) of 81%. The inhibition at 0.01 µM (DU-145 [7]) was 57%, the GI50 (DU-145 [8]) was less than 10 nM and the inhibition at 0.01 µM (HCT-15 [9]) was 75%. It also gave a GI50 (HCT-15 [10]) of less than 10 nM, an inhibition at 0.01 µM (HCT-116 [11]) of 83% and a GI50 (HCT-116 [12]) of less than 10 nM. The GI50 (IGROV-1 [13]) was less than 10 nM, the GI50 (KM12 [14]) was less than 10 nM and the inhibition at 0.01 µM (KM12 [15]) was 56%. The inhibition at 0.01 µM (M14 [16]) was 59%, the GI50 (MOLT-4 [17]) was less than 10 nM and the GI50 (NCI/ADR-RES [18]) was less than 10 nM. For the same compound, the inhibition at 0.01 µM (NCI/ADR-RES [19]) was 84%, the GI50 (MDA-MB-435 [20]) was less than 10 nM and the inhibition at 0.01 µM (MCF7 [21]) was 60%. For the same compound, the GI50 (M14 [22]) was less than 10 nM, the GI50 (MDA-N [23]) was less than 10 nM and the inhibition at 0.01 µM (MDA-N [24]) was 63%. It also gave an inhibition at 0.01 µM (MDA-MB-435 [25]) of 72%, a GI50 (MCF7 [26]) of less than 10 nM and a GI50 (NCI-H460 [27]) of less than 10 nM. For the same compound, the GI50 (NCI-H522 [28]) was less than 10 nM, the inhibition at 0.01 µM (NCI-H522 [29]) was 59% and the GI50 (NCI-H322M [30]) was less than 10 nM. It also gave an inhibition at 0.01 µM (NCI-H322M [31]) of 53%, a GI50 (OVCAR-8 [32]) of less than 10 nM and an inhibition at 0.01 µM (NCI-H460 [33]) of 83%. The GI50 (NCI-H23 [34]) was less than 10 nM, the inhibition at 0.01 µM (NCI-H23 [35]) was 82% and the inhibition at 0.01 µM (RPMI-8226 [36]) was 69%. The GI50 (RPMI-8226 [37]) was less than 10 nM, the inhibition at 0.01 µM (SF-268 [38]) was 52% and the GI50 (SF-268 [39]) was less than 10 nM. It also gave a GI50 (SF-295 [40]) of less than 10 nM, an inhibition at 0.01 µM (SF-295 [41]) of 68% and an inhibition at 0.01 µM (SF-539 [42]) of 67%. For the same compound, the GI50 (SNB-19 [43]) was less than 10 nM, the inhibition at 0.01 µM (SNB-19 [44]) was 90% and the GI50 (SF-539 [45]) was less than 10 nM. For the same compound, the GI50 (SR [46]) was less than 10 nM, the inhibition at 0.01 µM (SR [47]) was 69% and the GI50 (SK-MEL-5 [48]) was less than 10 nM. The inhibition at 0.01 µM (SK-MEL-5 [49]) was 83%, the GI50 (UO-31 [50]) was less than 10 nM and the inhibition at 0.01 µM (UO-31 [51]) was 100%. For the same compound, the inhibition at 0.01 µM (IGROV-1 [52]) was 65%, the inhibition at 0.01 µM (MOLT-4 [53]) was 57% and the inhibition at 0.01 µM (OVCAR-8 [54]) was 76%. It also gave an IC50 [55] of 0.88 nM, an IC50 (Dihydrofolate reductase [56]) of 2.3 nM and an IC50 (Dihydrofolate reductase [57]) of 0.4 nM.

— ChEMBL document CHEMBL1131172 (J Med Chem, 1998)
